{
  "source": "patent US12208080B2",
  "about": "“Compositions and methods for modulation of extracellular vesicle release and treatment of neurological disorders” (GEORGE MASON RESEARCH FOUNDATION, INC., priority 2018, dated 2025)",
  "test_system": "autophagy proteins (p62, LC3, ATG12-ATG5, ATG12, Beclin-1) in U1 cells",
  "assay": "Autophagy protein profile, CBD versus autophagy drugs, in U1 cells and their EVs (Western blot)",
  "type": "cell-based",
  "conditions": "5 days, Rapamycin 50 nM, INK128 50 nM",
  "protocol": "FIGS. 18A-18B are gels showing CBD promotes autophagy turnover, resulting in a decrease in extracellular autophagosomal secretion. A) U1 cells (1×10^6) were treated±CBD (10 μM) for the following incubation periods: 0, 6, 24, and 48 hours. Cells were pelleted and lysed, exosomes from supernatants were enriched with NT80/82 beads overnight at 4° C. Samples were run through SDS-PAGE and western blotted for autophagy proteins (p62 and LC3), and Actin. B) U1 cells (1×10^6) were treated±10 μM CBD (every day), Rapamycin (50 nM), INK128 (50 nM), Bafilomycin A1 (50 nM), SB 203580 (20 μM), Wortmannin (2 nM) for a 5-day incubation period. Cells were pelleted and lysed, exosomes from supernatants were enriched using NT80/82 beads overnight at 4° C. Samples were run through SDS-PAGE and western blotted for autophagy proteins (p62, LC3, ATG12-ATG5, ATG12, Beclin-1), and Actin.\nFIGS. 21A-21K are graphs showing normalized densitometry analysis of CBD and autophagy drug treatment on HIV-1 infected monocytes. Intracellular (A) p62, (B) LC3 I, (C) LC3 II, (D) ATG12-ATG5 complex, (E) ATG12, and (F) Beclin-1, and extracellular (G) p62, (H) LC3 I, (I) LC3 II, (J) ATG12-ATG5 complex, and (K) Beclin-1 densitometry counts were calculated from the Western blot data in FIG. 5B, normalized to respective intracellular and extracellular Actin levels, and plotted.\nTo determine the specific points at which CBD inhibits intracellular and extracellular autophagosome formation and secretion, we compared CBD treatment of U1 monocytes with known inhibitors of different points in the autophagy pathway. Cell viability was assessed among a panel of titrated autophagy drugs and the least toxic concentration per drug was utilized (FIG. 20). We treated U1 cells with CBD (10 μM) every day, Rapamycin (50 nM), INK128 (50 nM), Bafilomycin A1 (50 nM), SB 203580 (20 μM), or Wortmannin (2 nM) for 5 days. Our rationale for using these drugs was that they regulate different steps of autophagy including nucleation inhibition by inhibiting MTOR activity (Rapamycin, INK128) or by inhibiting pre-autophagosomal VPS34 complex activity (Wortmannin, SB 203580), and autophagosome-lysosome fusion inhibition (Bafilomycin A1). Therefore, a side-by-side comparison to CBD would potentially allow for a better definition of which step of autophagosome formation is primarily regulated by CBD. U1 cells were treated with the autophagy regulators and harvested along with their corresponding supernatants for further analysis using Western blot against p62, LC3, ATG12-ATG5 complex, free ATG12, Beclin-1, and Actin. Results in FIG. 18B (intracellular proteins, top panel) show autophagy protein profiles associated with the various autophagy regulators. […] The corresponding supernatants were enriched for EVs and also analyzed for the presence of autophagy proteins.",
  "key": {"[1]": {"conditions": "CBD 10 μM every day, FIG. 18B top panel"}, "[2]": {"conditions": "CBD 10 μM, Bafilomycin A1 50 nM, SB 203580 20 μM, Wortmannin 2 nM, lower panel"}},
  "data": [
    {"smiles": "C=C(C)[C@@H]1CCC(C)=C[C@H]1c1c(O)cc(CCCCC)cc1O", "note": "[CBD, 2-[1R-3-methyl-6R-(1-methylethenyl)-2-cyclohexen-1-yl]-5-pentyl-1,3-benzenediol]", "values": [
      {"measurement": "intracellular ATG12-ATG5", "setting": "[1]", "result": "low levels"},
      {"measurement": "intracellular Beclin-1", "setting": "[1]", "result": "high levels"},
      {"measurement": "intracellular LC3 I", "setting": "[1]", "result": "low levels"},
      {"measurement": "EV-associated LC3 I", "setting": "[2]", "result": "reduction"},
      {"measurement": "EV-associated p62", "setting": "[2]", "result": "reduction"}
    ]}
  ]
}
